Consider 30 molecules from patent publication US20190284168A1, “PYRAZOLE DERIVATIES AS SGC STIMULATORS” (IRONWOOD PHARMACEUTICALS, INC., priority 2014, published 2019).

The target in the experiment is T1, soluble guanylate cyclase (sGC) (Homo sapiens, UniProt Q02108+Q02153).
T1 construct: endogenously expressing soluble guanylate cyclase (sGC); endogenous in cells; host or cells: HEK293
T1 sequence (Q02153 1-619): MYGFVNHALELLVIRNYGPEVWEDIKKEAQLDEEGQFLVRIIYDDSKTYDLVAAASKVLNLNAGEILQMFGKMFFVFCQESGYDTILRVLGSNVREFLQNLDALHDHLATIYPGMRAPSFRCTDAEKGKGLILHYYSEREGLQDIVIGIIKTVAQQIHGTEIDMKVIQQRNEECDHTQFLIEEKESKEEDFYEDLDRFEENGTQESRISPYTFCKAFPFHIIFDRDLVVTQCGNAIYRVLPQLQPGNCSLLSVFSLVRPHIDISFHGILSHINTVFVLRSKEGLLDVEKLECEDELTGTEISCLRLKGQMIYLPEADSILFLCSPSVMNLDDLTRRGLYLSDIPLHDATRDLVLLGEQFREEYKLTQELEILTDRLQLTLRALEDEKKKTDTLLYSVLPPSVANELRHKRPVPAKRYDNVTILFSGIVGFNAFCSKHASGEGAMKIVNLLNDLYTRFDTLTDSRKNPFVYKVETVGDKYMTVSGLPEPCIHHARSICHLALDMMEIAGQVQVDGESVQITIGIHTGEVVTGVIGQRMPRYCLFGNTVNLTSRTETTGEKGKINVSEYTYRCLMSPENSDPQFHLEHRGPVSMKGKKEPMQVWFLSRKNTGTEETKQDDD
T1 sequence (Q02108 1-690): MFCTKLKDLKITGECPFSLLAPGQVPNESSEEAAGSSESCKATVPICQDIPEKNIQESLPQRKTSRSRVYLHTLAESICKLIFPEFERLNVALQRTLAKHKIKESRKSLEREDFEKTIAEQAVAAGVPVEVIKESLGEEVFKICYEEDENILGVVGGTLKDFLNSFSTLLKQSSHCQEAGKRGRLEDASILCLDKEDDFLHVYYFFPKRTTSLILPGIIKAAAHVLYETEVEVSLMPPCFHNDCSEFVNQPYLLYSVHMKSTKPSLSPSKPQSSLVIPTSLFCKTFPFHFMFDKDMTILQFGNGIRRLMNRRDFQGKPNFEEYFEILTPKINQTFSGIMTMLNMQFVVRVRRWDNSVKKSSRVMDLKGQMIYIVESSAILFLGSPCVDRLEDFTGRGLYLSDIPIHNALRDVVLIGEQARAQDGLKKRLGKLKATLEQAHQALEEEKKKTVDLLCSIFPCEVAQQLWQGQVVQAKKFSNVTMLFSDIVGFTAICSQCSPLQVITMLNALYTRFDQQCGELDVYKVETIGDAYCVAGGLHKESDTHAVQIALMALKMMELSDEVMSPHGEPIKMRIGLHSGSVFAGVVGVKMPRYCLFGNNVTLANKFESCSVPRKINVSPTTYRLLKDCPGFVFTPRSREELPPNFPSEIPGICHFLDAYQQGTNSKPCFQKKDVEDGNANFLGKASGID
Briefly: sGC-HEK-cGMP assay with LC/MS detection. It counts as cell-based. The settings on record: HEK293 whole cells, LC/MS detection of cGMP, 10 μM DETA-NONOate; 50% of high control response (30 μM Compound Y); read-out: Absolute EC50 (nM)- binned (~).
Take `CCN(CC)c1nc(-c2cc(-c3ncco3)n(Cc3ccccc3F)n2)ncc1F` [Compound 140]: the EC50 (in general, the concentration that produces a half-maximal response) was above 1000 nM. Consider `COC1=CC(=O)N(c2nc(-c3cc(-c4ccon4)n(Cc4ccccc4F)n3)ncc2F)C1` [Compound 147, 1-(5-fluoro-2-(1-(2-fluorobenzyl)-5-(isoxazol-3-yl)-1H-pyrazol-3-yl)pyrimidin-4-yl)-4-methoxy-1H-pyrrol-2(5H)-one], for which the EC50 is above 1000 nM. Consider `CC(C)[C@H](CO)Nc1nc(-c2cc(-c3ccon3)n(Cc3ccccc3F)n2)ncc1F` [Compound 148, (R)-2-((5-fluoro-2-(1-(2-fluorobenzyl)-5-(isoxazol-3-yl)-1H-pyrazol-3-yl)pyrimidin-4-yl)amino)-3-methylbutan-1-ol], for which the 50% effective concentration (EC50) was below 100 nM. As for `CC(C)C[C@H](CO)Nc1nc(-c2cc(-c3ccon3)n(Cc3ccccc3F)n2)ncc1F` [Compound 149, (R)-2-((5-fluoro-2-(1-(2-fluorobenzyl)-5-(isoxazol-3-yl)-1H-pyrazol-3-yl)pyrimidin-4-yl)amino)-4-m ethylpentan-1-ol], the EC50 is below 100 nM. `CSCC[C@H](CO)Nc1nc(-c2cc(-c3ccon3)n(Cc3ccccc3F)n2)ncc1F` [Compound 150, (R)-2-((5-fluoro-2-(1-(2-fluorobenzyl)-5-(isoxazol-3-yl)-1H-pyrazol-3-yl)pyrimidin-4-yl)amino)-4-(methylthio)butan-1-ol]: the EC50 is below 100 nM. Regarding `CCCC[C@H](CO)Nc1nc(-c2cc(-c3ccon3)n(Cc3ccccc3F)n2)ncc1F` [Compound 151, (R)-2-((5-fluoro-2-(1-(2-fluorobenzyl)-5-(isoxazol-3-yl)-1H-pyrazol-3-yl)pyrimidin-4-yl)amino)hexan-1-ol], the EC50 is below 100 nM.

With `CCC[C@H](CO)Nc1nc(-c2cc(-c3ccon3)n(Cc3ccccc3F)n2)ncc1F` [Compound 152, (R)-2-((5-fluoro-2-(1-(2-fluorobenzyl)-5-(isoxazol-3-yl)-1H-pyrazol-3-yl)pyrimidin-4-yl)amino)pentan-1-ol], the EC50 was below 100 nM. Regarding `CCC(N)(CC)CNc1nc(-c2cc(-c3ccon3)n(Cc3ccccc3F)n2)ncc1F` [Compound 153, 2-ethyl-N1-(5-fluoro-2-(1-(2-fluorobenzyl)-5-(isoxazol-3-yl)-1H-pyrazol-3-yl)pyrimidin-4-yl)butane-1,2-diamine], the EC50 was 100 to 1000 nM. Consider `CC(C)C(C)(N)CNc1nc(-c2cc(-c3ccon3)n(Cc3ccccc3F)n2)ncc1F` (stereo not drawn) [Compound 154, N1-(5-fluoro-2-(1-(2-fluorobenzyl)-5-(isoxazol-3-yl)-1H-pyrazol-3-yl)pyrimidin-4-yl)-2,3-dimethylbutane-1,2-diamine], for which the EC50 was in the range of 100 to 1000 nM. As to `CCCC(C)(N)CNc1nc(-c2cc(-c3ccon3)n(Cc3ccccc3F)n2)ncc1F` (stereo not drawn) [Compound 155, N1-(5-fluoro-2-(1-(2-fluorobenzyl)-5-(isoxazol-3-yl)-1H-pyrazol-3-yl)pyrimidin-4-yl)-2-methylpentane-1,2-diamine], the EC50 was in the range of 100 to 1000 nM. Turning to `CC(C)CC(C)(N)CNc1nc(-c2cc(-c3ccon3)n(Cc3ccccc3F)n2)ncc1F` (stereo not drawn) [Compound 156, N1-(5-fluoro-2-(1-(2-fluorobenzyl)-5-(isoxazol-3-yl)-1H-pyrazol-3-yl)pyrimidin-4-yl)-2,4-dimethylpentane-1,2-diamine], the EC50 fell in the range of 100 to 1000 nM. As to `C[C@H]1CCCN(c2nc(-c3cc(-c4ccon4)n(Cc4ccccc4F)n3)ncc2F)[C@H]1C(=O)OCCN1CCOCC1` [Compound 157, (2R,3S)-2-morpholinoethyl 1-(5-fluoro-2-(1-(2-fluorobenzyl)-5-(isoxazol-3-yl)-1H-pyrazol-3-yl)pyrimidin-4-yl)-3-methylpiperidine-2-carboxylate], the EC50 is above 1000 nM. In the case of `O=C(Nc1nc(-c2cc(-c3ccon3)n(Cc3ccccc3F)n2)ncc1F)OCCN1CCOCC1` [Compound 158, 2-morpholinoethyl (5-fluoro-2-(1-(2-fluorobenzyl)-5-(isoxazol-3-yl)-1H-pyrazol-3-yl)pyrimidin-4-yl)carbamate], the concentration giving a half-maximal response (EC50) is above 1000 nM. Consider `Nc1ccc(CNc2nc(-c3cc(-c4ccon4)n(Cc4ccccc4F)n3)ncc2F)cc1O` [Compound 159, 2-amino-5-(((5-fluoro-2-(1-(2-fluorobenzyl)-5-(isoxazol-3-yl)-1H-pyrazol-3-yl)pyrimidin-4-yl)amino)methyl)phenol], for which the EC50 is above 30000 nM. For `O=S(=O)(Nc1ccc(CNc2nc(-c3cc(-c4ccon4)n(Cc4ccccc4F)n3)ncc2F)cc1O)C1CC1` [Compound 160, N-(4-(((5-fluoro-2-(1-(2-fluorobenzyl)-5-(isoxazol-3-yl)-1H-pyrazol-3-yl)pyrimidin-4-yl)amino)methyl)-2-hydroxyphenyl)cyclopropanesulfonamide], the EC50 lay in the range of 100 to 1000 nM. `CS(=O)(=O)Nc1ccc(CNc2nc(-c3cc(-c4ccon4)n(Cc4ccccc4F)n3)ncc2F)cc1O` [Compound 161, N-(4-(((5-fluoro-2-(1-(2-fluorobenzyl)-5-(isoxazol-3-yl)-1H-pyrazol-3-yl)pyrimidin-4-yl)amino)methyl)-2-hydroxyphenyl)methanesulfonamide]: the EC50 is 100 to 1000 nM. Turning to `O=C(CCNc1nc(-c2cc(-c3ccon3)n(Cc3ccccc3F)n2)ncc1F)OCCN1CCOCC1` [Compound 162, 2-morpholinoethyl 3-((5-fluoro-2-(1-(2-fluorobenzyl)-5-(isoxazol-3-yl)-1H-pyrazol-3-yl)pyrimidin-4-yl)amino)propanoate], the EC50 is 100 to 1000 nM. Regarding `COC(=O)CCNc1nc(-c2cc(-c3ccon3)n(Cc3ccccc3F)n2)ncc1F` [Compound 163, methyl 3-((5-fluoro-2-(1-(2-fluorobenzyl)-5-(isoxazol-3-yl)-1H-pyrazol-3-yl)pyrimidin-4-yl)amino)propanoate], the EC50 is below 100 nM. On to `CC(C)OC(=O)CCNc1nc(-c2cc(-c3ccon3)n(Cc3ccccc3F)n2)ncc1F` [Compound 164, isopropyl 3-((5-fluoro-2-(1-(2-fluorobenzyl)-5-(isoxazol-3-yl)-1H-pyrazol-3-yl)pyrimidin-4-yl)amino)propanoate], for which the EC50 is below 100 nM.

For `CCOC(=O)CCNc1nc(-c2cc(-c3ccon3)n(Cc3ccccc3F)n2)ncc1F` [Compound 165, ethyl 3-((5-fluoro-2-(1-(2-fluorobenzyl)-5-(isoxazol-3-yl)-1H-pyrazol-3-yl)pyrimidin-4-yl)amino)propanoate], the EC50 lay within 100 to 1000 nM. To `C=CCN(C)c1nc(-c2cc(-c3ccon3)n(Cc3ccccc3F)n2)ncc1F` [Compound 166, N-allyl-5-fluoro-2-(1-(2-fluorobenzyl)-5-(isoxazol-3-yl)-1H-pyrazol-3-yl)-N-methylpyrimidin-4-amine] belongs above 1000 nM; to `CC(=O)c1cc(-c2ncc(F)c(N3CCC(C(=O)O)(C(C)C)CC3)n2)nn1Cc1ccccc1F` [Compound 179], 100 to 1000 nM. To `CC(=O)c1cc(-c2ncc(F)c(NCC(O)CO)n2)nn1Cc1ccccc1F` (stereo not drawn) [Compound 180] belongs 100 to 1000 nM. For `CC(=O)c1cc(-c2ncc(F)c(N3CCC(C)(C(=O)O)CC3)n2)nn1Cc1ccccc1F` [Compound 181], the half-maximal effective concentration (EC50) lay in the range of 100 to 1000 nM. `Oc1cccc(F)c1Cn1nc(-c2ncc(F)c(O)n2)cc1-c1ccon1` [Compound 182]: the EC50 is above 1000 nM. Take `Oc1cccc(F)c1Cn1nc(-c2ncc(F)c(NCC(O)(C(F)(F)F)C(F)(F)F)n2)cc1-c1ccon1` [Compound 183]: the EC50 was above 1000 nM. For `Oc1ccc(Cn2nc(-c3ncc(F)c(NCC(O)(C(F)(F)F)C(F)(F)F)n3)cc2-c2ccon2)c(F)c1` [Compound 184], the EC50 was above 1000 nM. In the case of `CC(=O)c1cc(-c2ncc(F)c(NCC(C)(O)C(N)=O)n2)nn1Cc1ccccc1F` (stereo not drawn) [Compound 193], the EC50 is above 1000 nM. On to `CC(=O)c1cc(-c2ncc(F)c(N[C@@H](CO)C(N)=O)n2)nn1Cc1ccccc1F` [Compound 194, (S)-2-((2-(5-acetyl-1-(2-fluorobenzyl)-1H-pyrazol-3-yl)-5-fluoropyrimidin-4-yl)amino)-3-hydroxypropanamide], for which the EC50 was above 1000 nM. Regarding `NC(=O)[C@](O)(CNc1nc(-c2cc(-c3ccon3)n(Cc3ccc(O)cc3F)n2)ncc1F)C(F)(F)F` [Compound 195], the concentration for a half-maximal effect (EC50) was above 1000 nM.
